Reference: paper PMC4490784, “Compensatory induction of MYC expression by sustained CDK9 inhibition via a BRD4-dependent mechanism” (eLife, 2015)

Legend:
Assay in all cases: biochemical binding or enzymatic assay
[1] = target: T1, ERK2 (Homo sapiens, UniProt P28482); conditions: Novartis
T1 construct: purchased DiscoveRx KINOMEscan
Experimental: (§1) Finally, the selectivity profile of i-CDK9 toward other non-CDK kinases was also assessed using the KINOMEscan platform. […] Except for CLK4, for which no suitable assay was available, the rest of the kinases plus a selected group of others were re-examined for the concentration-dependent effect of i-CDK9 in either functional kinase assays or binding assays. […] Indeed, it has recently been reported that DYRK1A acts as a Pol II CTD Kinase at its target gene promoters ([Di Vona et al., 2015]).

[2] = target: T2, EPHA4 (Homo sapiens, UniProt P54764); conditions: Novartis
T2 construct: purchased DiscoveRx KINOMEscan
Experimental: as §1

[3] = target: T3, TAOK3 (Homo sapiens, UniProt Q9H2K8); conditions: Millipore
T3 construct: purchased DiscoveRx KINOMEscan
T3 sequence (Q9H2K8 1-898): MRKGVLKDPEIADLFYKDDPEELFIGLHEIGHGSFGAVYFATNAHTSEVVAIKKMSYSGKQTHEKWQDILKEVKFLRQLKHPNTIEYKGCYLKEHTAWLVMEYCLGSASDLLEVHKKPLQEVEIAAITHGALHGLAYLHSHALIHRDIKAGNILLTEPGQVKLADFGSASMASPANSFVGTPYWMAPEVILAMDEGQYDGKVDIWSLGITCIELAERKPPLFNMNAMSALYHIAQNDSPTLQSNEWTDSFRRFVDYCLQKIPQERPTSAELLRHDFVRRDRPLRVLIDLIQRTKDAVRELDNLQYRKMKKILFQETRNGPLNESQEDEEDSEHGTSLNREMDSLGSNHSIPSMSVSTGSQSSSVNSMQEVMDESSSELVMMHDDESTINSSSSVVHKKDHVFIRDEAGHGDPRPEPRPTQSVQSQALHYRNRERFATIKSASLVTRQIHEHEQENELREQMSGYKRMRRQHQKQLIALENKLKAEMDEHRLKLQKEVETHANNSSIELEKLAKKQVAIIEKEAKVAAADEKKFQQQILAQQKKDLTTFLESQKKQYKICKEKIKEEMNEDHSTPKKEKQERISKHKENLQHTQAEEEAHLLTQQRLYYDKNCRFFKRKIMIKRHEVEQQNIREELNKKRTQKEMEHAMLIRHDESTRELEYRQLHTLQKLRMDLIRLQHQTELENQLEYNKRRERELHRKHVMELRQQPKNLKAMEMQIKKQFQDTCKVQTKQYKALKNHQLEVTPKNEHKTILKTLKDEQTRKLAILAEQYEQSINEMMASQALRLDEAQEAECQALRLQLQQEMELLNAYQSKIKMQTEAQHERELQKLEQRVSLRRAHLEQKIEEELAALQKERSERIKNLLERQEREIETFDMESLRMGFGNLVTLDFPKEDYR
Experimental: as §1

[4] = target: T4, SRC (Homo sapiens, UniProt P12931); conditions: Novartis
T4 construct: purchased DiscoveRx KINOMEscan
Experimental: as §1

[5] = target: T5, PAK2 (Homo sapiens, UniProt Q13177); conditions: Novartis
T5 construct: purchased DiscoveRx KINOMEscan
Experimental: as §1

[6] = target: T6, FLT3 (Homo sapiens, UniProt P36888); conditions: Novartis
T6 construct: purchased DiscoveRx KINOMEscan
Experimental: as §1

[7] = target: T7, MKNK1 (Homo sapiens, UniProt Q9BUB5); conditions: Novartis
T7 construct: purchased DiscoveRx KINOMEscan
Experimental: as §1

[8] = target: T8, MAPKAPK2 (Homo sapiens, UniProt P49137); conditions: Novartis
T8 construct: purchased DiscoveRx KINOMEscan
Experimental: as §1

[9] = target: T9, PCTK3 (Homo sapiens, UniProt Q07002); conditions: Ambit
T9 construct: purchased DiscoveRx KINOMEscan
Experimental: as §1

[10] = target: T10, BTK (Homo sapiens, UniProt Q06187); conditions: Novartis
T10 construct: purchased DiscoveRx KINOMEscan
Experimental: as §1

[11] = target: T11, CAMK2D (Homo sapiens, UniProt Q13557); conditions: Novartis
T11 construct: purchased DiscoveRx KINOMEscan
Experimental: as §1

[12] = target: T12, PDPK1 (Homo sapiens, UniProt O15530); conditions: Novartis
T12 construct: purchased DiscoveRx KINOMEscan
T12 sequence (O15530 1-556): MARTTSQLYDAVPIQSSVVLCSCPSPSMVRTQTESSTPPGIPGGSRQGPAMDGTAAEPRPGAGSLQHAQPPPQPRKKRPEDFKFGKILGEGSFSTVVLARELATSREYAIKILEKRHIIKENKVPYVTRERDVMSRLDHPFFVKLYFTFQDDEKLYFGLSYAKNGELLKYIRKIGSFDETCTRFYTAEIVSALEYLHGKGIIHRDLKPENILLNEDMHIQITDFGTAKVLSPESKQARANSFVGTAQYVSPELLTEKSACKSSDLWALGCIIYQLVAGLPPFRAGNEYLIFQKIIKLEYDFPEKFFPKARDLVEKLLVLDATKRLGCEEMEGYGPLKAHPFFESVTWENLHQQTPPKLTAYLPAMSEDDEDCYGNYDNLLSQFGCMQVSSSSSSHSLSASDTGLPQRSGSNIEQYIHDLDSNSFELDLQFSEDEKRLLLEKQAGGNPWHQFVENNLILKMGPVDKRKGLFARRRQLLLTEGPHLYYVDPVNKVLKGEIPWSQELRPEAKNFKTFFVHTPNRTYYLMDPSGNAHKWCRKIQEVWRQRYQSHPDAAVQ
Experimental: as §1

[13] = target: T13, PDGFRA (Homo sapiens, UniProt P16234); conditions: Novartis
T13 construct: purchased DiscoveRx KINOMEscan
Experimental: as §1

[14] = target: T14, YES (Homo sapiens, UniProt P07947); conditions: Novartis
T14 construct: purchased DiscoveRx KINOMEscan
Experimental: as §1

[15] = target: T15, FGFR1 (Homo sapiens, UniProt P11362); conditions: Novartis
T15 construct: purchased DiscoveRx KINOMEscan
Experimental: as §1

[16] = target: T16, AKT1 (Homo sapiens, UniProt P31749); conditions: Novartis
T16 construct: purchased DiscoveRx KINOMEscan
Experimental: as §1

T9 sequence (Q07002 whole entry): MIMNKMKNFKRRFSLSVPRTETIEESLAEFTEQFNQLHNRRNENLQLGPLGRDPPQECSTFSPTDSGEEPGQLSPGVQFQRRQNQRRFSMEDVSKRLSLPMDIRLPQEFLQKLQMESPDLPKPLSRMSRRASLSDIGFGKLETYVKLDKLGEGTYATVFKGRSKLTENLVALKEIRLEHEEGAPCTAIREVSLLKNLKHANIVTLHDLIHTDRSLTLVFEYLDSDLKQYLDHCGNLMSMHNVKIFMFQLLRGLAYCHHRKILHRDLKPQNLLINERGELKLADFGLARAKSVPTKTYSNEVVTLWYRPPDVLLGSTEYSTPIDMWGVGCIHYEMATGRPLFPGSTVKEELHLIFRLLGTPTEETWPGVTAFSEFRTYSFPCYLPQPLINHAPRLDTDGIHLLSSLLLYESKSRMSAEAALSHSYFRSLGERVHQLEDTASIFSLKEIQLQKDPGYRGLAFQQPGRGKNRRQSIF
T5 sequence (Q13177 whole entry): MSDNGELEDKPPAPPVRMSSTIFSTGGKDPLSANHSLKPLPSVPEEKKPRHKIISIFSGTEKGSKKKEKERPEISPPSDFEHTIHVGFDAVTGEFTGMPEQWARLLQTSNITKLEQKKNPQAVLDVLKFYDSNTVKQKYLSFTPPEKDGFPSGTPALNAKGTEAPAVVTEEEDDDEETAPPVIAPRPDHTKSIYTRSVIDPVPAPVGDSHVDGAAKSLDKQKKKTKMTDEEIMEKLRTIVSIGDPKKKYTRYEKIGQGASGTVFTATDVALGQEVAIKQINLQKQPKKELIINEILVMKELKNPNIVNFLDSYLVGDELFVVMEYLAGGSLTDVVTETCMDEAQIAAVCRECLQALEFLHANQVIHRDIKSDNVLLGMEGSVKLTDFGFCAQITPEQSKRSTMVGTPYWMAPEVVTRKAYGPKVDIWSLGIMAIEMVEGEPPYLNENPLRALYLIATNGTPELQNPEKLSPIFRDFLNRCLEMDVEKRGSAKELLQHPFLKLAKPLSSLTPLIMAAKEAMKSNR
T15 sequence (P11362 22-822): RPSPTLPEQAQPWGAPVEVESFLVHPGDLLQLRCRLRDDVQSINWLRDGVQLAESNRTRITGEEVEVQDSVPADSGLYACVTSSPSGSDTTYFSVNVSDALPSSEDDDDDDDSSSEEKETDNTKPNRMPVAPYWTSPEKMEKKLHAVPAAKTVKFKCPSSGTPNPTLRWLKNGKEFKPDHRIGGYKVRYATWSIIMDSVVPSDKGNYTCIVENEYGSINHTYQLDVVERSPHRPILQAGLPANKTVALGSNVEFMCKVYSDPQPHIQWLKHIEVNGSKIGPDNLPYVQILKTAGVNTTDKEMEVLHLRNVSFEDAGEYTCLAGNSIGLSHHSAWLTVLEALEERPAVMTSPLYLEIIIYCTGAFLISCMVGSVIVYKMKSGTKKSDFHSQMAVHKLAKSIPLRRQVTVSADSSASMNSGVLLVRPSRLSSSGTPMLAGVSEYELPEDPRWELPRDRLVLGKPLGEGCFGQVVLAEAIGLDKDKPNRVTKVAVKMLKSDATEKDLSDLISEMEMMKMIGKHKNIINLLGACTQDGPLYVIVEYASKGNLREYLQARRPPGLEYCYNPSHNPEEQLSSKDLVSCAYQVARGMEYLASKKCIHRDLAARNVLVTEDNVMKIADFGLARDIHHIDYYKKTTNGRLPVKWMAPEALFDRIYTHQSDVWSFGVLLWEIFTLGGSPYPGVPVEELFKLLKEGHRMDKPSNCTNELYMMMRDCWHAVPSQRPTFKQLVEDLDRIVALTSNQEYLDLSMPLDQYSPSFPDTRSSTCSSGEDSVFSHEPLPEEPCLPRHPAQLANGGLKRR
T13 sequence (P16234 24-1089): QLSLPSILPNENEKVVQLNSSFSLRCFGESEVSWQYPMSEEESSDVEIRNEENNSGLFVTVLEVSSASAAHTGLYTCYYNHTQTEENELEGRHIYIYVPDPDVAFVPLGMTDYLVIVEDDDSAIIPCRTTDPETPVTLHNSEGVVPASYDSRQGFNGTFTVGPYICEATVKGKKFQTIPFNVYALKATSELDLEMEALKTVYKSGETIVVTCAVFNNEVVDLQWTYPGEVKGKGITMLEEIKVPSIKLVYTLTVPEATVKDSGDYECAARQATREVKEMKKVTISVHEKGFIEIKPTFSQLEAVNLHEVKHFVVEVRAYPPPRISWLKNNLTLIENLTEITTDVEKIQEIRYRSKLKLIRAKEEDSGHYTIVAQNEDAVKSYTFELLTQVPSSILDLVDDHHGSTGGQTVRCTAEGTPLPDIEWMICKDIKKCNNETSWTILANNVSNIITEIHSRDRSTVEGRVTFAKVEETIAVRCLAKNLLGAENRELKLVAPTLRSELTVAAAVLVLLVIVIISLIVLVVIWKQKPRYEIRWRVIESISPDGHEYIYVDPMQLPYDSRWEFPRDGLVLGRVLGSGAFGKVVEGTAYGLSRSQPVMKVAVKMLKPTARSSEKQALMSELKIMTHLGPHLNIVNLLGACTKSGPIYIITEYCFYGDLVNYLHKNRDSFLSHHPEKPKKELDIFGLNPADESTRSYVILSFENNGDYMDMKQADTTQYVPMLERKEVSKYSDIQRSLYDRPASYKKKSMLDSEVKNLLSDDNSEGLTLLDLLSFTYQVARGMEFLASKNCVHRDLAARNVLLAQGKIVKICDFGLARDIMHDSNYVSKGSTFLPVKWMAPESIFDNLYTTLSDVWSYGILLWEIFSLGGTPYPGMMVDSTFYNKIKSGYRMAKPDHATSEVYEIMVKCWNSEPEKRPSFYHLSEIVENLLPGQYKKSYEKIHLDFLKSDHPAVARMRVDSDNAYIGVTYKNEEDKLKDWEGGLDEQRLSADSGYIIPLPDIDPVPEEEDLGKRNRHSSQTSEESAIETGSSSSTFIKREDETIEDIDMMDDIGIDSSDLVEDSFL
T7 sequence (Q9BUB5 whole entry): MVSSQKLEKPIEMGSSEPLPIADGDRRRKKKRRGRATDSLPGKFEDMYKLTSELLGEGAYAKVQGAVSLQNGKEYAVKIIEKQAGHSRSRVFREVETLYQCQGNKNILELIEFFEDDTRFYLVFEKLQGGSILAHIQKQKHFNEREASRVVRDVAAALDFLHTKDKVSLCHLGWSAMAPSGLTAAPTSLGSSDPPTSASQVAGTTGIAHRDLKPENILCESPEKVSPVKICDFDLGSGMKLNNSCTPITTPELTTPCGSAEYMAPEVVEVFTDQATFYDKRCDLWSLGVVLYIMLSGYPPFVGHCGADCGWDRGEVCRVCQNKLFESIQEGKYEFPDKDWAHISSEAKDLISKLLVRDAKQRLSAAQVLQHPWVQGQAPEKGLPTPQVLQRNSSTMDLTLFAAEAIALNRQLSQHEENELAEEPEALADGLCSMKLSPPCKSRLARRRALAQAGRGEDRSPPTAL
T1 sequence (P28482 whole entry): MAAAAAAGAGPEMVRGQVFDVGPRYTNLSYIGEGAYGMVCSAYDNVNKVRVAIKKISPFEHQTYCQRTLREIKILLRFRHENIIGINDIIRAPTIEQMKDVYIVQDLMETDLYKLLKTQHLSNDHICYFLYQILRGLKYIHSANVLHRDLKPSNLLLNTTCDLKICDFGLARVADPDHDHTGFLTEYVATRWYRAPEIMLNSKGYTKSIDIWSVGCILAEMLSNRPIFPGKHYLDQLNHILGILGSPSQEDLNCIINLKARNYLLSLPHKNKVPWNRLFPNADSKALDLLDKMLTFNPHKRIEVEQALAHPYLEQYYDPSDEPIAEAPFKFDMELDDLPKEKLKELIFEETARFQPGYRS
T2 sequence (P54764 20-986): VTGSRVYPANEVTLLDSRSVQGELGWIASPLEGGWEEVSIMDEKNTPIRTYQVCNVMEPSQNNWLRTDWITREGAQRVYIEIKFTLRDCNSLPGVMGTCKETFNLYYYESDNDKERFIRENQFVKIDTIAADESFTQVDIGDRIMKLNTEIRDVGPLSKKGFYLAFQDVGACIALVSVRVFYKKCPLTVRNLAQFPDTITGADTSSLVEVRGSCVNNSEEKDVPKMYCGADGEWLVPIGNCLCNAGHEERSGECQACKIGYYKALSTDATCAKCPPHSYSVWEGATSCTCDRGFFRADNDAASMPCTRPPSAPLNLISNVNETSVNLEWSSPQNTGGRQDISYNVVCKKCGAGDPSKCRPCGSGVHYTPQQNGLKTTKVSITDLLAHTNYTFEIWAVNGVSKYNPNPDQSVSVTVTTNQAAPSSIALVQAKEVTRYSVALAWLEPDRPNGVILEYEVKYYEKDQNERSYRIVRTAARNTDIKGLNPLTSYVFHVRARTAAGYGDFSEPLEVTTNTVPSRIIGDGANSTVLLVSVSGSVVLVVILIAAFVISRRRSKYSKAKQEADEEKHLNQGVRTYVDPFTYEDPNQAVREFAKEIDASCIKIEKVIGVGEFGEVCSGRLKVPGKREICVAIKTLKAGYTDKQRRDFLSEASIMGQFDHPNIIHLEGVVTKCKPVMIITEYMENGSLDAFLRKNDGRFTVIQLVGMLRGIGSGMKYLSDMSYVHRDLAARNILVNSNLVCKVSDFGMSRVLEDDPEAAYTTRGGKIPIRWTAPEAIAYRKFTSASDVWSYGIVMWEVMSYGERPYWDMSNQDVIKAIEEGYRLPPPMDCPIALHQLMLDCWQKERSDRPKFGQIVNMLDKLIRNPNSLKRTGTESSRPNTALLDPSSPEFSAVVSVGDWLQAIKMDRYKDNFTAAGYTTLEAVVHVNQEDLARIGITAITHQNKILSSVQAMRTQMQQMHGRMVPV

N[C@H]1CC[C@H](Nc2cc(-c3cccc(NCc4cccc(F)c4)n3)c(Cl)cn2)CC1 [i-CDK9, N2′-(trans-4-aminocyclohexyl)-5′-chloro-N6-(3-fluorobenzyl)-2,4′-bipyridine-2′,6-diamine]
IC50 [1]: > 10 µM | IC50 [2]: > 10 µM | IC50 [3]: 1.08 µM | IC50 [4]: > 10 µM | IC50 [5]: > 10 µM | IC50 [6]: > 10 µM | IC50 [7]: > 10 µM | IC50 [8]: > 10 µM | IC50 [9]: > 0.45 µM | IC50 [10]: > 10 µM | IC50 [11]: 4 µM | IC50 [12]: > 10 µM | IC50 [13]: > 10 µM | IC50 [14]: > 10 µM | IC50 [15]: > 10 µM | IC50 [16]: > 10 µM
